Measured values from article PMC3646166, “Comparison of Aqueous and 1-Octanol Solubility as well as Liquid–Liquid Distribution of Acyclovir Derivatives and Their Complexes with Hydroxypropyl-β-Cyclodextrin” (Journal of Solution Chemistry, 2013).
Values after ≈ are worked out from the molar mass of the structure shown. Like-named read-outs stand apart in the source and are kept apart here.

Tests used:
[1] = Extraction experiments, 1-octanol-water partition coefficient; assay type: physicochemical; settings: 25 °C, read-out: Partition coefficient 1-octanol–water, P oc/w (converted)
Protocol: The equipment described above was also used for the determination of the 1-octanol-water partition coefficients. […] The partition coefficient was evaluated as:1 Poc/w=Coc/Cw where C oc and C w are the molar concentrations of the solute in the 1-octanol and water phases, respectively. The correctness of the P oc/w value of each compound was verified by checking the mass balance of the starting amount of the substance and the total amount of the substance partitioned between the two phases.

[2] = Solubility in buffered cyclodextrin solutions (excess method of Higuchi and Connors); assay type: physicochemical; parameters: Stability constant K s of HP-β-CD complex: unit not given here; settings: for Correlation parameter a (Eq. 2, Cs = a + b·CCD) / Correlation parameter b (Eq. 2, Cs = a + b·CCD): buffered HP-β-CD solutions; for solubility / solubility at 7 days: thermodynamic from solid, read-out: Solubility, C 6-Ph-O-Me-TACV
Protocol: Solubilities of the studied compounds was ensured according to the excess method of Higuchi and Connors. […] An excess amount of compounds 4-9 and 11-12 was added to 1.5 mL of aqueous phosphate buffer (concentration of buffer was equal 0.067 mol·dm^-3) solutions, (pH = 5.5 or 7.0) containing various concentration of HP-β-CD. The cyclodextrin concentration changed in the range of 10^-3 to 2 × 10^-2 mol·dm^-3. The suspensions were shaken in screw-capped plastic vials in a water bath thermostat with the volume of 60 dm^3 (home made apparatus by IChF PAN) at 25 and 37 °C. After 7 days equilibrium was reached and then the suspensions were centrifuged and the absorbance of the studied compounds was measured by UV-Vis spectrophotometry using a Shimadzu UV 2401 PC Spectrometer equipped with a thermostatically controlled cell compartment. During the measurement of absorbance, a buffered-solution of HP-β-CD, of the same concentration as in the studied solution, was always put as the reference. The average values of at least three independent determinations of the absorbance were used for calculation of the concentrations of the particular acyclovir derivatives. […] The main reason for the low solubility of tricyclic acyclovir derivatives with aromatic groups in water is the high hydrophobicity of these substituents. Use of cyclodextrins, which can include aromatic groups into their cavity, may enhance the aqueous solubility of such compounds. For this purpose we used several cyclodextrins and hydroxypropyl-β-cyclodextrin was chosen as being more efficient for complexating the tricyclic acyclovir derivatives. The investigations were performed, for chosen compounds, in various cyclodextrin HP-β-CD, buffered solutions (pH = 5.5 and 7.0) at 25 and 37 °C. […] Values of the correlation parameters a and b for tricyclic acyclovir derivatives complexed by cyclodextrin are presented in Table 3. […] The stability constants of the inclusion complexes between HP-β-CD and acyclovir derivatives have been calculated according to the Higuchi-Connors method using:3 K=b/C0(1-b) where C 0 is the solubility of the sample in solutions without cyclodextrin, obtained by determination of saturated solution concentration of acyclovir derivative solutions. […] These two values can differ, but in our study are very close to each other.

[3] = Solubility in water or 1-octanol (saturated solutions, UV-Vis); assay type: physicochemical; settings: for solubility: thermodynamic from solid, water
Protocol: The sample of substance examined (10 mg or 80 mg for 6-Me-TACV) was placed in a glass ampoule and double-distilled, deionized water (Millipore, Elix 5 purifier), or pure anhydrous 1-octanol (Sigma 99 %) was added. To attain thermodynamic equilibrium, the solute and the solvent were mixed continuously for a minimum of 4 days at a speed of 25 rpm. After the experiment was completed, the sample was centrifuged at 40,000 rpm for 40 min at 25 ± 0.1 °C, the supernatant liquid was collected, diluted, and its concentration determined with a UV–Vis (Varian Carry IE) spectrophotometer. The experiments were repeated at least three times for each solubility.

[4] = Solubility in buffered cyclodextrin solutions (excess method of Higuchi and Connors); assay type: physicochemical; settings: phosphate buffer saturated with 1-octanol, aqueous buffer, thermodynamic from solid, pH = 7.0, 37 °C, read-out: Solubility, C 6-Ph-O-Me-TACV
HSV-1 and HSV-2 viruses = tested on: HSV-1 and HSV-2 viruses; parameters: method as in PMID 7932543; settings: towards HSV-1 and HSV-2 viruses ref 8; cited from earlier work

logP at 2 days [1]: 0.386
Correlation parameter a (Eq. 2, Cs = a + b·CCD) ([2]; pH = 5.5, 25 °C): 5.23 × 10^−5
Correlation parameter b (Eq. 2, Cs = a + b·CCD) ([2]; pH = 5.5, 25 °C): 1.00 × 10^−2
Correlation parameter a (Eq. 2, Cs = a + b·CCD) ([2]; pH = 5.5, 37 °C): 9.95 × 10^−5
Correlation parameter b (Eq. 2, Cs = a + b·CCD) ([2]; pH = 5.5, 37 °C): 1.41 × 10^−2
Correlation parameter a (Eq. 2, Cs = a + b·CCD) ([2]; pH = 7.0, 25 °C): 5.68 × 10^−5
Correlation parameter b (Eq. 2, Cs = a + b·CCD) ([2]; pH = 7.0, 25 °C): 1.06 × 10^−2
Correlation parameter a (Eq. 2, Cs = a + b·CCD) ([2]; pH = 7.0, 37 °C): 1.37 × 10^−4
Correlation parameter b (Eq. 2, Cs = a + b·CCD) ([2]; pH = 7.0, 37 °C): 1.30 × 10^−2
solubility ([2]; organic solvent or mixture, 1-Octanol saturated with buffer, pH = 5.5, 25 °C): 473 µM (≈ 168 µg/mL)
solubility ([2]; organic solvent or mixture, 1-Octanol saturated with buffer, pH = 5.5, 37 °C): 741 µM (≈ 263 µg/mL)
solubility at 7 days ([2]; organic solvent or mixture, 1-Octanol saturated with buffer, pH = 7.0, 25 °C): 485 µM (≈ 172 µg/mL)
solubility at 7 days ([2]; organic solvent or mixture, 1-Octanol saturated with buffer, pH = 7.0, 37 °C): 882 µM (≈ 313 µg/mL)
Stability constant K s of HP-β-CD complex ([2]; pH = 5.5, 25 °C): 213 (±6) dm·mol^−1
Stability constant K s of HP-β-CD complex ([2]; pH = 5.5, 37 °C): 144 (±5)
Stability constant K s of HP-β-CD complex ([2]; pH = 7, 25 °C): 189 (±6) dm·mol^−1
Stability constant K s of HP-β-CD complex ([2]; pH = 7, 37 °C): 96 (±4)
solubility at 7 days ([2]; phosphate buffer saturated with 1-octanol, aqueous buffer, Buffer saturated with 1-octanol, pH = 5.5, 25 °C): 74.2 µM (≈ 26.4 µg/mL)
solubility at 7 days ([2]; phosphate buffer saturated with 1-octanol, aqueous buffer, Buffer saturated with 1-octanol, pH = 5.5, 37 °C): 127 µM (≈ 45.1 µg/mL)
solubility at 7 days ([2]; phosphate buffer saturated with 1-octanol, aqueous buffer, Buffer saturated with 1-octanol, pH = 7.0, 25 °C): 58.7 µM (≈ 20.9 µg/mL)
solubility at 7 days ([2]; phosphate buffer saturated with 1-octanol, aqueous with cosolvent or surfactant or cyclodextrin, Buffer saturated with 1-octanol + HP-β-CD (2 × 10^−2 mol·dm^−3), pH = 5.5, 25 °C): 40.3 µM
solubility at 7 days ([2]; phosphate buffer saturated with 1-octanol, aqueous with cosolvent or surfactant or cyclodextrin, Buffer saturated with 1-octanol + HP-β-CD (2 × 10^−2 mol·dm^−3), pH = 5.5, 37 °C): 77 µM
solubility at 7 days ([2]; phosphate buffer saturated with 1-octanol, aqueous with cosolvent or surfactant or cyclodextrin, Buffer saturated with 1-octanol + HP-β-CD (2 × 10^−2 mol·dm^−3), pH = 7.0, 25 °C): 40.3 µM
solubility at 7 days ([2]; phosphate buffer saturated with 1-octanol, aqueous with cosolvent or surfactant or cyclodextrin, Buffer saturated with 1-octanol + HP-β-CD (2 × 10^−2 mol·dm^−3), pH = 7.0, 37 °C): 80.6 µM
solubility at 7 days ([2]; phosphate buffer with HP-β-CD, aqueous with cosolvent or surfactant or cyclodextrin, Buffer + HP-β-CD (2 × 10^−2 mol·dm^−3), pH = 5.5, 25 °C): 244 µM
solubility at 7 days ([2]; phosphate buffer with HP-β-CD, aqueous with cosolvent or surfactant or cyclodextrin, Buffer + HP-β-CD (2 × 10^−2 mol·dm^−3), pH = 5.5, 37 °C): 374 µM
solubility at 7 days ([2]; phosphate buffer with HP-β-CD, aqueous with cosolvent or surfactant or cyclodextrin, Buffer + HP-β-CD (2 × 10^−2 mol·dm^−3), pH = 7.0, 25 °C): 265 µM
solubility at 7 days ([2]; phosphate buffer with HP-β-CD, aqueous with cosolvent or surfactant or cyclodextrin, Buffer + HP-β-CD (2 × 10^−2 mol·dm^−3), pH = 7.0, 37 °C): 391 µM
solubility at 7 days ([2]; phosphate buffer, aqueous buffer, Buffer, pH = 5.5, 25 °C): 48.2 µM (≈ 17.1 µg/mL)
solubility at 7 days ([2]; phosphate buffer, aqueous buffer, Buffer, pH = 5.5, 37 °C): 99.4 µM (≈ 35.3 µg/mL)
solubility at 7 days ([2]; phosphate buffer, aqueous buffer, Buffer, pH = 7.0, 25 °C): 55 µM (≈ 19.5 µg/mL)
solubility at 7 days ([2]; phosphate buffer, aqueous buffer, Buffer, pH = 7.0, 37 °C): 136 µM (≈ 48.3 µg/mL)
Solubility ratio in 1-octanol and water, C oc/C w ([3]; 25 °C): 7.62
Solubility ratio in 1-octanol saturated with water and water saturated with 1-octanol, C ocw/C woc ([3]; 25 °C): 2.84
solubility ([3]; 25 °C (Table 1), read-out: Solubility in water, C w): 53 µM (≈ 18.8 µg/mL)
solubility ([3]; water saturated with 1-octanol, 25 °C, read-out: Solubility in water saturated with 1-octanol, C woc): 135 µM (≈ 48 µg/mL)
solubility ([3]; 35 °C, read-out: Aqueous solubility, C w): 144 µM (≈ 51.2 µg/mL)
solubility ([3]; 45 °C, read-out: Aqueous solubility, C w): 465 µM (≈ 165 µg/mL)
solubility at 7 days [4]: 139 µM (≈ 49.4 µg/mL)
SMILES: COc1ccc(-c2cn3c(=O)c4ncn(COCCO)c4nc3[nH]2)cc1 [Compound 11]
Antiherpetic activity relative to parent acyclovir (concentrations required to reduce virus-induced cytopathicity by 50 %) (HSV-1 and HSV-2 viruses): 2–7 times higher
